For the assay, the target named is WIL-FL (Homo sapiens, UniProt P01721). Kind of assay: Unlabeled LC Protease Sensitivity Assay (proteinase K). To be noted: small molecule 10 μM, WIL-FL 5 μM, proteinase K 50 nM, 2 hours at 37° C. It is filed as biochemical. In a few lines:
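WIL-FL light chain (5 μM) in PBS pH 7.4 + 0.02% Pluronic F-127 digested with proteinase K (50 nM) for 2 h at 37 °C with 10 μM compound (1% DMSO). Intact WIL-FL quantified by size-exclusion UPLC (A280). Fold protection = (A_compound−A_vehicle)/(A_no_protease−A_vehicle) from peak areas.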
As to `CCN(CC)c1ccc2c(C)c(CCN3C(=O)NC4(CCN(S(=O)(=O)CC)C4)C3=O)c(=O)oc2c1` (centres unmarked) [Compound 203, 3-(2-(7-(diethylamino)-4-methyl-2-oxo-2H-chromen-3-yl)ethyl)-7-(ethylsulfonyl)-1,3,7-triazaspiro[4.4]nonane-2,4-dione], the “Protection (fold protection of LC from protease)” value is “C (C ≥ 0.6)”.

`CCN(CC)c1ccc2c(C)c(CCN3C(=O)NC4(CCN(S(=O)(=O)NC)C4)C3=O)c(=O)oc2c1` (centres unmarked) [Compound 204, 3-(2-(7-(diethylamino)-4-methyl-2-oxo-2H-chromen-3-yl)ethyl)-N-methyl-2,4-dioxo-1,3,7-triazaspiro[4.4]nonane-7-sulfonamide]: the “Protection (fold protection of LC from protease)” value is recorded as “B (3 ≤ B < 0.6)”.

Regarding `CCN(CC)c1ccc2c(C)c(CCN3C(=O)NC4(CCN(C(=O)c5ncccn5)C4)C3=O)c(=O)oc2c1` (centres unmarked) [Compound 205, 3-(2-(7-(diethylamino)-4-methyl-2-oxo-2H-chromen-3-yl)ethyl)-7-(pyrimidine-2-carbonyl)-1,3,7-triazaspiro[4.4]nonane-2,4-dione], the “Protection (fold protection of LC from protease)” value is “B (3 ≤ B < 0.6)”.

With `CCN(CC)c1ccc2c(C)c(CCN3C(=O)NC4(CCN(C(=O)c5ncccn5)CC4)C3=O)c(=O)oc2c1` [Compound 206, 3-(2-(7-(diethylamino)-4-methyl-2-oxo-2H-chromen-3-yl)ethyl)-8-(pyrimidine-2-carbonyl)-1,3,8-triazaspiro[4.5]decane-2,4-dione], the “Protection (fold protection of LC from protease)” value is reported as “A (A < 0.3))”.

Take `CCN(CC)c1ccc2c(C)c(CCN3C(=O)NC4(CCN(C(=O)c5ccncn5)C4)C3=O)c(=O)oc2c1` (centres unmarked) [Compound 207, 3-(2-(7-(diethylamino)-4-methyl-2-oxo-2H-chromen-3-yl)ethyl)-7-(pyrimidine-4-carbonyl)-1,3,7-triazaspiro[4.4]nonane-2,4-dione]: the “Protection (fold protection of LC from protease)” value is recorded as “B (3 ≤ B < 0.6)”.

`CCN(CC)c1ccc2c(C)c(CCN3C(=O)NC4(CCN(C(=O)c5ccncn5)CC4)C3=O)c(=O)oc2c1` [Compound 208, 3-(2-(7-(diethylamino)-4-methyl-2-oxo-2H-chromen-3-yl)ethyl)-8-(pyrimidine-4-carbonyl)-1,3,8-triazaspiro[4.5]decane-2,4-dione]: the “Protection (fold protection of LC from protease)” value was “B (3 ≤ B < 0.6)”.

With `CCN(CC)c1ccc2c(C)c(CCN3C(=O)NC4(CCN(C(=O)c5cncnc5)C4)C3=O)c(=O)oc2c1` (centres unmarked) [Compound 209, 3-(2-(7-(diethylamino)-4-methyl-2-oxo-2H-chromen-3-yl)ethyl)-7-(pyrimidine-5-carbonyl)-1,3,7-triazaspiro[4.4]nonane-2,4-dione], the “Protection (fold protection of LC from protease)” value was “B (3 ≤ B < 0.6)”.

Consider `CCN(CC)c1ccc2c(C)c(CCN3C(=O)NC4(CCN(C(=O)c5cncnc5)CC4)C3=O)c(=O)oc2c1` [Compound 210, 3-(2-(7-(diethylamino)-4-methyl-2-oxo-2H-chromen-3-yl)ethyl)-8-(pyrimidine-5-carbonyl)-1,3,8-triazaspiro[4.5]decane-2,4-dione], for which the “Protection (fold protection of LC from protease)” value is “B (3 ≤ B < 0.6)”.

With `CCN(CC)c1ccc2c(C)c(CCN3C(=O)NC4(CCN(C(=O)c5cnccn5)C4)C3=O)c(=O)oc2c1` (centres unmarked) [Compound 211, 3-(2-(7-(diethylamino)-4-methyl-2-oxo-2H-chromen-3-yl)ethyl)-7-(pyrazine-2-carbonyl)-1,3,7-triazaspiro[4.4]nonane-2,4-dione], the “Protection (fold protection of LC from protease)” value was “B (3 ≤ B < 0.6)”.

Regarding `CCN(CC)c1ccc2c(C)c(CCN3C(=O)NC4(CCN(C(=O)c5cnccn5)CC4)C3=O)c(=O)oc2c1` [Compound 212, 3-(2-(7-(diethylamino)-4-methyl-2-oxo-2H-chromen-3-yl)ethyl)-8-(pyrazine-2-carbonyl)-1,3,8-triazaspiro[4.5]decane-2,4-dione], the “Protection (fold protection of LC from protease)” value is reported as “B (3 ≤ B < 0.6)”.

Regarding `CCN(CC)c1ccc2c(C)c(CCN3C(=O)NC4(CCN(c5nccn6ccnc56)CC4)C3=O)c(=O)oc2c1` [Compound 215, 3-(2-(7-(diethylamino)-4-methyl-2-oxo-2H-chromen-3-yl)ethyl)-8-(imidazo[1,2-a]pyrazin-8-yl)-1,3,8-triazaspiro[4.5]decane-2,4-dione], the “Protection (fold protection of LC from protease)” value is listed as “C (C ≥ 0.6)”.

Regarding `CCN(CC)c1ccc2c(C)c(CCN3C(=O)NC4(CCN(c5ncnc6c5cnn6C)CC4)C3=O)c(=O)oc2c1` [Compound 216, 3-(2-(7-(diethylamino)-4-methyl-2-oxo-2H-chromen-3-yl)ethyl)-8-(1-methyl-1H-pyrazolo[3,4-d]pyrimidin-4-yl)-1,3,8-triazaspiro[4.5]decane-2,4-dione], the “Protection (fold protection of LC from protease)” value is “C (C ≥ 0.6)”.

On to `CCN(CC)c1ccc2c(C)c(CCN3C(=O)NC4(CCN(c5nccn6cnnc56)CC4)C3=O)c(=O)oc2c1` [Compound 217, 8-([1,2,4]triazolo[4,3-a]pyrazin-8-yl)-3-(2-(7-(diethylamino)-4-methyl-2-oxo-2H-chromen-3-yl)ethyl)-1,3,8-triazaspiro[4.5]decane-2,4-dione], for which the “Protection (fold protection of LC from protease)” value was “C (C ≥ 0.6)”.

Regarding `CCN(CC)c1ccc2c(C)c(CCOC(=O)NCc3cccc(-c4ccccc4O)c3)c(=O)oc2c1` [Compound 218, 2-(7-(diethylamino)-4-methyl-2-oxo-2H-chromen-3-yl)ethyl ((2′-hydroxy-[1,1′-biphenyl]-3-yl)methyl)carbamate], the “Protection (fold protection of LC from protease)” value is on record as “C (C ≥ 0.6)”.

Turning to `CCN(CC)c1ccc2c(C)c(CCOC(=O)NCc3cccc(-c4ccccc4OS(=O)(=O)F)c3)c(=O)oc2c1` [Compound 219, 3′-((((2-(7-(diethylamino)-4-methyl-2-oxo-2H-chromen-3-yl)ethoxy)carbonyl)amino)methyl)-[1,1′-biphenyl]-2-yl sulfurofluoridate], the “Protection (fold protection of LC from protease)” value is reported as “A (A < 0.3))”.

On to `CCN(CC)c1ccc2c(C)c(CCOC(=O)NCc3cncc(-c4ccc[nH]c4=O)c3)c(=O)oc2c1` [Compound 220, 2-(7-(diethylamino)-4-methyl-2-oxo-2H-chromen-3-yl)ethyl ((2′-oxo-1′,2′-dihydro-[3,3′-bipyridin]-5-yl)methyl)carbamate], for which the “Protection (fold protection of LC from protease)” value is given as “A (A < 0.3))”.

`CCN(CC)c1ccc2c(C)c(CCN3CC4(CCN(c5ncccn5)CC4)NC3=O)c(=O)oc2c1` [Compound 221, 3-(2-(7-(diethylamino)-4-methyl-2-oxo-2H-chromen-3-yl)ethyl)-8-(pyrimidin-2-yl)-1,3,8-triazaspiro[4.5]decan-2-one]: the “Protection (fold protection of LC from protease)” value was “C (C ≥ 0.6)”.

Turning to `CCN(CC)c1ccc2c(C)c(CCN3CC4(CCN(c5ncnc6[nH]ncc56)CC4)NC3=O)c(=O)oc2c1` [Compound 222, 3-(2-(7-(diethylamino)-4-methyl-2-oxo-2H-chromen-3-yl)ethyl)-8-(1H-pyrazolo[3,4-d]pyrimidin-4-yl)-1,3,8-triazaspiro[4.5]decan-2-one], the “Protection (fold protection of LC from protease)” value was “C (C ≥ 0.6)”.

In the case of `CCN(CC)c1ccc2c(C)c(CCN3CC4(CCN(c5nccn6ccnc56)CC4)NC3=O)c(=O)oc2c1` [Compound 223, 3-(2-(7-(diethylamino)-4-methyl-2-oxo-2H-chromen-3-yl)ethyl)-8-(imidazo[1,2-a]pyrazin-8-yl)-1,3,8-triazaspiro[4.5]decan-2-one], the “Protection (fold protection of LC from protease)” value is “C (C ≥ 0.6)”.

With `Cc1cc(=O)oc2cc(C#N)ccc12` [Compound 224, 4-methyl-2-oxo-2H-chromene-7-carbonitrile], the “Protection (fold protection of LC from protease)” value is reported as “A (A < 0.3))”.

(Values after patent US11945806B2, “Stabilization of amyloidogenic immunoglobulin light chains” (The Scripps Research Institute, priority 2019, dated 2024).)
